The record followed here is PubChem BioAssay (NCI).

What all share (assay): NCI anticancer screen, dose series, 48 h
The test system of experiment [1] is EKVX NSCLC.
For experiment [2], the system named is CAKI-1 renal.
Experiment [3] deals with HL-60(TB) leukemia.
The test system of experiment [4] is UACC-62 melanoma.
For experiment [5], the system named is SK-MEL-28 melanoma.
Experiment [6] deals with RXF 393 renal.
Experiment [7] deals with SW-620 colon.
In experiment [8] the test system is OVCAR-3 ovarian.
The subject of experiment [9] is U251 CNS.
The test system of experiment [10] is T-47D breast.

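Briefly, cells in 96-well plates were exposed to five compound concentrations for 48 h, and endpoints were estimated by linear interpolation. TGI is the concentration that stops growth completely.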 Bounds are passed on as bounds.

`COc1cccc(CCNC(=O)Cc2ccccc2CCO)c1`: the TGI in experiment [1], in experiment [2], in experiment [3], in experiment [4], in experiment [5] and in [6] was over 100 µM throughout. For the same compound, the TGI in experiment [7], in experiment [8], in experiment [9] and in experiment [10] was over 100 µM each time.

As for `CCO/C(O)=C(/C(=N)N1CCOCC1)C(=O)Nc1ccc(F)cc1`, the TGI in [1], in experiment [2], in [3], in [4], in experiment [5] and in experiment [6] was over 100 µM each time. Besides, the TGI in [7], in experiment [8], in [9] and in experiment [10] was over 100 µM throughout.

Turning to `N#Cc1n[nH]n(-c2ccc(Br)cc2)c1=O`, the TGI in experiment [1], in [2], in [3], in experiment [4], in [5] and in experiment [6] was over 100 µM each time. The TGI in experiment [7], in [8], in experiment [9] and in experiment [10] was over 100 µM throughout.

For `CC(=O)N(C(C)=O)c1ncc(-n2nc(-c3ccccc3)cc2-c2ccccc2)c(-c2ccccc2)n1`, the TGI in experiment [1], in experiment [2], in [3], in experiment [4], in experiment [5] and in experiment [6] was over 10 µM in each case. The TGI in experiment [7], in [8], in experiment [9] and in experiment [10] was over 10 µM in each case.

Take `CC(C)(C)OC(=O)N(CCCCN(CCCNC(=O)C(F)(F)F)C(=O)OC(C)(C)C)CCCNC(=O)C(F)(F)F`: the TGI in experiment [1], in experiment [2], in experiment [3], in experiment [4], in [5] and in experiment [6] was over 100 µM each time. Further, the TGI in experiment [7], in experiment [8], in experiment [9] and in experiment [10] was over 100 µM in each case.
